What follows are compounds tested against T1, Serine/threonine-protein (Bos taurus, UniProt A0A3Q1MT31) (assay: Inhibition Assay). Details: pH 6.5; 25 °C.
T1 construct: gene GSK3B
Protocol: A mixture containing 100 mM MES-sodium hydroxide (pH 6.5), 1 mM magnesium acetate, 0.5 mM EGTA, 5 mM beta-mercaptoethanol, 0.02% Tween 20, 10% glycerol, 12 ug/ml P-GS1, 41.7 uM [gamma-32P] ATP (68 kBq/ml), bovine cerebral TPK1 and a compound shown in Table (a final mixture contained 1.7% DMSO deriving from a solution of a test compound prepared in the presence of 10% DMSO) was used as a reaction system. The phosphorylation was started by adding ATP, and the reaction was conducted at 25 C. for 2 hours, and then stopped by adding 21% perchloric acid on ice cooling. The reaction mixture was centrifuged at 12,000 rpm for 5 minutes and adsorbed on P81 paper (Whatmann), and then the paper was washed four times with 75 mM phosphoric acid, three times with water and once with acetone. The paper was dried, and the residual radioactivity was measured using a liquid scintillation counter.

T1 sequence (A0A3Q1MT31 1-419): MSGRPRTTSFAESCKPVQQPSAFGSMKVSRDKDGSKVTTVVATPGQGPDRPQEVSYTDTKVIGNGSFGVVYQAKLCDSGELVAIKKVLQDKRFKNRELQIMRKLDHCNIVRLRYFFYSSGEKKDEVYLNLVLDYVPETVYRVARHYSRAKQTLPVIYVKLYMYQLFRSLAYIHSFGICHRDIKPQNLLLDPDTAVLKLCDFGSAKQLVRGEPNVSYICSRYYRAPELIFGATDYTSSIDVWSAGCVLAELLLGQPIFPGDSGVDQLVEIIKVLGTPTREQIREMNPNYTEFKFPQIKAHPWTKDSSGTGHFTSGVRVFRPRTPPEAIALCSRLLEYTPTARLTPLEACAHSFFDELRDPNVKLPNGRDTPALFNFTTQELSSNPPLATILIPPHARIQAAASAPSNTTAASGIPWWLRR

Row | Structure (SMILES) | IC50 [nM]
1 | C[C@@H]1COCCN1c1nc(-c2ncncc2F)cc(=O)n1C [US8940738, 2] | 19.7
2 | Cn1c(N2CCOC[C@H]2CF)nc(-c2ncncc2F)cc1=O [US8940738, 3] | 33.4
3 | Cc1nc(-c2ccc([C@H]3CN(c4nc(-c5ncncc5F)cc(=O)n4C)CCO3)cc2)no1 [US8940738, 4] | 8.4
4 | Cn1c(N2CCCC(c3ccc(N4CCCC4)cc3)C2)nc(-c2ncncc2F)cc1=O (centres undefined) [US8940738, 5] | 33.1
5 | Cc1cccc(N2CCN(c3nc(-c4ncncc4F)cc(=O)n3C)CC2)c1C [US8940738, 7] | 78.3
6 | COc1ccc(CCNc2nc(-c3ncncc3F)cc(=O)n2C)cc1OC [US8940738, 8] | 75.3
7 | Cn1c(NCC(=O)c2ccc(Cl)cc2)nc(-c2ncncc2F)cc1=O [US8940738, 9] | 608
8 | CN(CCc1ccc([N+](=O)[O-])cc1)c1nc(-c2ncncc2F)cc(=O)n1C [US8940738, 10] | 165
9 | Cc1nc(-c2ccc([C@H]3CN(c4nc(-c5ccncn5)c(O)c(=O)n4C)CCO3)cc2)no1 [US8940738, 11] | 6.7
